Laboratory results taken from PMC8129133, “Polymer-free corticosteroid dimer implants for controlled and sustained drug delivery” (Nature Communications, 2021).
“And” between values parts separate entries of the source, which are not always exact repeats. Equal entries are not always repeated. Blank lines part the entries; values can stand above or below the molecule they belong to.

Tests used:
[1] = system: LPS-induced stimulation of PGE2 production by primary human monocytes; test: LPS induced monocyte activation (PGE2 ELISA); type: cell-based; conditions: for % Activity: Fig 4h, PGE2 production, one line per donor
Source text: Monocytes were isolated from whole peripheral blood donated by healthy volunteers. Protocols were approved by Health Sciences Research Ethics Board (REB) at the University of Toronto (ethics approval #22203). All experiments were repeated with three distinct donors who provided informed consent. Briefly, whole blood was layered on Histopaque-1077 (Sigma) and the mononuclear cell fraction was isolated by density centrifugation. Platelets were removed through a series of washes. Monocytes were seeded at a density of 200,000/well in a 96-well plate (Becton Dickinson). Medium was changed 2 h post-seeding to remove non-adherent cells. […] Dex derived from degraded Dex-TEG-Dex was prepared by dissolving Dex-TEG-Dex in ethanol at 10 mg/ml, adding to culture medium to achieve a concentration of 10 µg/ml, and subsequent incubation of the solution at 37 °C and 5% CO2 until the dimer had fully degraded, as confirmed by HPLC. […] Samples were incubated for 15 min at 37 °C and 5% CO2, followed by addition of a 2 µl lipopolysaccharide stock solution (LPS, Sigma) to obtain a final concentration of 50 µg/ml. Following overnight exposure to LPS, supernatant was collected and analyzed for PGE2 using a PGE2 ELISA kit according to the manufacturer’s instructions (R&D Systems).

In vitro release = type: physicochemical; conditions: Fig 6c; for Cumulative Dex Release: single replicates
Method: Pellets for release studies. Crystalline drug dimers were weighed on a stainless steel coupon. In the case of blends with a second drug, the dimer and drug were mixed at the desired mass ratio with mortar and pestle prior to weighing. Samples were transferred to a heat press (Carver Laboratory Press). A PTFE mold containing an array of 1 mm diameter holes of 1 mm depth was placed on top of the melt, and pressure was applied for 2 min. Molded pellets were cooled to room temperature and punched out of the mold, yielding a pellet of 1 mm height × 1 mm diameter.
Release studies were carried out using different media, including PBS (pH 7.4, Gibco), 100% FBS (Sigma, F1051), 1% FBS in PBS pH 7.4, and 3.6% BSA (Sigma, A7906) in PBS (pH 7.4, Gibco). […] Samples were incubated in release medium at 37 °C under constant agitation on an orbital shaker at 115 rpm (VWR). At designated timepoints, sampling was performed by complete removal of medium and replenishment with fresh buffer. Sampling timepoints included 24 h and then every 3–4 days thereafter. For PBS release conditions, samples were analyzed directly. For samples with protein (100% FBS, 1% FBS, 3.6% BSA), protein was precipitated by addition of acetonitrile. Samples were vortexed and centrifuged to separate extracted drug from precipitated protein. The supernatant was then analyzed for drug concentration by HPLC.

[2] = cited from earlier work
[3] = system: vascular endothelial growth factor (VEGF) induced blood-retinal barrier breakdown; test: Rabbit pharmacodynamics, VEGF-induced vascular leakage; type: in vivo, Dutch Belted rabbits; design: key to FA Scoring: 0: major vessels straight, some tortuosity of smaller vessels, no vessel dilation; 1: increased tortuosity of major vessels and/or some vessel dilation; 2: leakage between major vessels, significant vessel dilation; 3: leakage between major and minor vessels, minor vessels still visible; 4: leakage between major and minor vessels, minor vessels poorly/not visible; conditions: single eyes, Fig 9b
Method: Pharmacodynamics. Rabbit pharmacodynamics studies were performed at Absorption Systems California (San Diego, CA, USA). All studies were conducted in compliance with relevant ethical regulations, including the USDA Animal Welfare Act (i.e., relevant sections of Section 9, Part 1, 2, and 3 of the Code of Federal Regulations) and in compliance with Absorption Systems’ Animal Welfare Assurance filed with the National Institutes of Health. Protocols were reviewed and approved by Absorption Systems’ Institutional Animal Care and Use Committee (IACUC) prior to the initiation of procedures. Treatment of animals was in accordance with conditions specified in the Guide for Care and Use of Laboratory Animals (NRC, 2011, National Academy Press). Animals were anesthetized with intramuscular ketamine hydrochloride (15-20 mg/kg) and xylazine (5 mg/kg) prior to test article injection or vascular leakage induction. The eye area was surgically prepped with 5% betadine and rinsing with balanced salt solution, followed by administration of 1–2 drops of topical proparacaine hydrochloride (0.5%). […] Test articles (27 G × 6 mm, 30 G × 6 mm, and 32 G × 6 mm Dex-TEG-Dex extruded rods, or Ozurdex®) were injected intravitreally in Dutch Belted rabbits (male, 1.84–2.49 kg, 5–6 months) on Day 0 and vascular leakage was induced by an intravitreal injection of VEGF (500 ng/eye) at acute and chronic timepoints (1 week, 2.5, 4.5, 6, 9, 12, and/or 18 months) post-implantation. Post-injection analgesia was provided by 0.02-0.05 mg/kg IM/SC buprenorphine. Negative control rabbits received a sham injection while positive control rabbits received a 2 mg solution dose of triamcinolone acetonide (Kenalog-40). Ophthalmic exams, including fundus microscopy and slit lamp microscopy, were carried out over the 3 days post-VEGF induction and vascular leakage was measured by fluorescein angiography on the third day post-VEGF induction. Eyes were graded based on fundus and fluorescein angiography images using a scoring system as follows[76]: 0 – major vessels straight, some tortuosity of smaller vessels, no vessel dilation; 1 – increased tortuosity of major vessels and/or some vessel dilation; 2 – leakage between major vessels, significant vessel dilation; 3 – leakage between major and minor vessels, minor vessels still visible; and 4 – leakage between major and minor vessels, minor vessels poorly/not visible.

[4] = rabbit, in vivo
Method: Analysis of samples was conducted using a SCIEX API 5000 mass spectrometer (Applied Biosystems/MDS Sciex), Shimadzu LC-20ADXR HPLC pumps, Shimadzu SCL-10A controller, and HTS-PAL autoinjector (CTC Analytics). Chromatography was performed using a Waters X-Bridge C-18 (3.5 µm; 100 × 2.1 mm) column equipped with a Phenomenex KrudKatcher ULTRA HPLC In-Line Filter (Part AF0-8497). The column was held at a temperature of 40 °C, while the autosampler compartment was maintained at 4 °C. Mobile phases consisted of: (A) 95:5 H2O:MeOH with 2 mM Ammonium Acetate (NH4OAc) and (B) 85:10:5 MeOH:H2O:MeCN with 2 mM NH4OAc. A gradient elution profile was employed, following the trend of: (0 min 30% B), (0.50 min 30% B), (2.50 min 65% B), (2.51 min 100% B), (4.50 min 100% B), (4.51 min 30% B), (6.50 min 30% B). Flow was constant at 0.6 mL min^-1 with an injection volume of 10 µL. For MS parameters, the system was operated in positive ion mode with a TurboIonSpray probe monitoring transitions (±0.2 AMU) of m/z 393.2 → 373.2 for Dex and 397.3 → 377.2 for the Dex-d4 deuterated internal standard. Analyst Version 1.4.2 (Applied Biosystems-MDS Sciex) was used for instrument control, data acquisition, and peak integrations, while calculations including peak area ratios, standard curve regressions, sample concentration values, and descriptive statistics were performed with the assistance of the ALIS2004 validated LIMS.
Dex and internal standard (Dex-d4) were extracted from vitreous humor on ice using protein precipitation. Samples were initially centrifuged at approximately 1500 rcf for 5 min to remove any interfering particulates. Stepwise, the protocol for extraction from vitreous humor was to (1) pipette 50 µL of vitreous humor into an extraction tube; (2) add 13 µL H2O and vortex to mix; (3) add 25 µL internal standard spiking solution (100 ng/mL Dex-d4 in a 1:1 solvent of MeOH:H2O); (4) add 25 µL of make-up reagent (1:1 mixture of MeOH:H2O); (5) vortex mix for 5-10 s at a speed setting of 4 or 5; (6) centrifuge at ~60 rcf for 2 min; (7) add 300 µL of 9:1 MeOH:5 mM NH4OAc at pH 7 to precipitate proteins; (8) cap and vortex mix at full speed for 2 min; (9) Centrifuge at approximately 2700 rcf for 5 min; (10) transfer 300 µL of supernatant to a separate tube; (11) vortex the collected supernatant for 30 s at a low to moderate speed; (12) centrifuge at ~1500 rcf for 5 min; (13) store prepared extract at 4 °C until analysis by LC-MS/MS.
Pharmacokinetics. […] Animals were anesthetized with ketamine (up to ~50 mg/kg) and xylazine (up to ~10 mg/kg). Eyes were surgically prepared before intravitreal procedures with 5% betadine and topical anesthetic eye drops (proparacaine hydrochloride, 0.5%). Prior to test article administration, pupils were dilated with topical application of one drop each of 10% phenylephrine and 1% tropicamide on each cornea.
Implants (30 G × 6 mm Dex-TEG-Dex extruded rods, Ozurdex®) were injected (30 G needle for Dex-TEG-Dex, 22 G needle for Ozurdex®) intravitreally into the eyes of New Zealand White rabbits (female, 1.5–2.5 kg) with terminal timepoints of 1 and 2 weeks and 1, 2, 3, 6, 9, 12, and 14 months. Ocular tissues and plasma were collected at each timepoint and analyzed for Dex by LC/MS/MS. Whole globe eyes were collected into centrifuge tubes and remained frozen for a minimum of 24 h before dissection and tissue collection. During dissection, vitreous humor containing any remaining test article was collected frozen into pre-weighed centrifuge tubes and stored at −80 °C until further processing.

IC50 ([1]; Monocyte, primary human monocytes, N=3, read-out: IC50, inhibition of LPS-induced PGE2 production): 1.52 ± 1.24 nM
Cumulative Dex Release (%), avg (In vitro release; Day 1): 0.0437%
Cumulative Dex Release (ng), avg (In vitro release; Day 1): 365.83 ng
Cumulative Dex Release (In vitro release; Day 1): 489.28 ng and 390.83 ng and 217.38 ng
Cumulative Dex Release (%), avg (In vitro release; Day 3): 0.15%
Cumulative Dex Release (ng), avg (In vitro release; Day 3): 1234.13 ng
Cumulative Dex Release (In vitro release; Day 3): 1469.66 ng and 1518.28 ng and 714.45 ng
Cumulative Dex Release (%), avg (In vitro release; Day 8): 0.45%
Cumulative Dex Release (ng), avg (In vitro release; Day 8): 3751.80 ng
Cumulative Dex Release (In vitro release; Day 8): 4281.72 ng and 3939.60 ng and 3034.10 ng
Cumulative Dex Release (%), avg (In vitro release; Day 10): 0.56%
Cumulative Dex Release (ng), avg (In vitro release; Day 10): 4651.15 ng
Cumulative Dex Release (In vitro release; Day 10): 5032.13 ng and 5126.71 ng and 3794.60 ng
Cumulative Dex Release (%), avg (In vitro release; Day 14): 0.78%
Cumulative Dex Release (ng), avg (In vitro release; Day 14): 6525.91 ng
Cumulative Dex Release (In vitro release; Day 14): 7249.57 ng and 6858.64 ng and 5469.52 ng
SMILES: C[C@@H]1C[C@H]2[C@@H]3CCC4=CC(=O)C=C[C@]4(C)[C@@]3(F)[C@@H](O)C[C@]2(C)[C@@]1(O)C(=O)CO [Dex, dexamethasone, reference compound]
% Activity ([1]; 0.05 nM, 50 pM): 141.66% and 109.12% and 86.18%
% Activity ([1]; 0.1 nM, 0.0001 µM): 118.30% and 90.43% and 82.49%
% Activity ([1]; 0.5 nM, 0.0005 µM): 96.26% and 65.64% and 103.04%
% Activity ([1]; 1 nM, 0.001 µM): 66.03% and 45.78% and 57.92%
% Activity ([1]; 5 nM, 0.005 µM): 74.59% and 37.73% and 56.77%
% Activity ([1]; 10 nM, 0.01 µM): 69.04% and 28.95% and 33.87%
% Activity ([1]; 100 nM, 0.1 µM): 42.88% and 13.38% and 14.89%

SMILES: OCCOCCOCCO [TEG, triethylene glycol]
toxicity by systemic routes of administration [2]: no significant adverse toxicity

SMILES: CC1CC2C3CCC4=CC(=O)C=CC4(C)C3(F)C(O)CC2(C)C1(O)C(=O)COC(=O)OCCOCCOCCOC(=O)OCC(=O)C1(O)C(C)CC2C3CCC4=CC(=O)C=CC4(C)C3(F)C(O)CC21C (stereo not drawn) [Dex-TEG-Dex (30G x 6 mm implant)]
FA Scoring ([3]; 7 days): 0
FA Scoring ([3]; 136 days): 0
FA Scoring ([3]; 360 d): 2 and 3 and 4 and 0 and 1

Dex in aqueous humor (ng/ml) [4]: BQL
Dex in retina (ng/g) [4]: BQL
Dex in vitreous humor (ng/ml) [4]: BQL
SMILES: CC1CC2C3CCC4=CC(=O)C=CC4(C)C3(F)C(O)CC2(C)C1(O)C(=O)COC(=O)OCCOCCOCCOC(=O)OCC(=O)C1(O)C(C)CC2C3CCC4=CC(=O)C=CC4(C)C3(F)C(O)CC21C (stereo not drawn) [Dex-TEG-Dex 30G x 6 mm implant]
